Experimental data from US9512175B2, “Macrocyclic inhibitors of flaviviridae viruses” (Gilead Sciences, Inc., priority 2012, dated 2016).
Where two headings read alike, the source gives them in different places.

Columns and labels:
[1] = rcm bond
[2] = from C=Cc1ccc2ccc([C@@H](C)OC(=O)[C@@H]3CCCN(C(=O)[C@H](C)NC(=O)[C@@H](NC(=O)[C@@H](/C=C/C)CC4CC4)C(C)C)N3)nc2c1; rcm bond; 21-membered ring; Hoveyda-Grubbs II (3x20 mol%); 1,2-dichloroethane; 2.44 mM; 80.0 °C
[3] = target: cyclophilin A (Homo sapiens, UniProt P62937); test: Cyclophilin A TR-FRET competitive binding assay; conditions: IC50 ranges; competition with CsA-Cy5 for His-tagged CypA, two-hour incubation; read-out: TR-FRET
Experimental: Cyclophilin A TR-FRET Competitive Binding Assay
Inhibitor potency was measured using a competitive binding assay with a time-resolved fluorescence resonance energy transfer (TR-FRET) readout. […] An IC50 value was calculated using a four-parameter logistic fit.

[4] = tested on: HCV replicon (Replicon 1a); test: anti-HCV activity in Huh-7 cell line harboring a HCV replicon (Replicon 1a); assay type: cell-based; conditions: for inhibition at 1 µM: Hepatitis C virus, Huh-7, 72 h, read-out: Replicon 1a % inhibition at 1 μM, 1 μM, human hepatoma Huh-7 HCV replicon cells, 3 days, luciferase readout

Sequence of cyclophilin A (P62937 whole entry, species assumed): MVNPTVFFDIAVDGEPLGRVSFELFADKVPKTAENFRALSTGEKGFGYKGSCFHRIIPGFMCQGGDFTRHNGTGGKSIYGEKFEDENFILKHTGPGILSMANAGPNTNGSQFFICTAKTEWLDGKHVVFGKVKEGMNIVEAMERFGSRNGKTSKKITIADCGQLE

Molecule | IC50 [3] | inhibition at 1 µM [4] | other results
CC(C)[C@@H]1NC(=O)C=Cc2cc3cc(ccc3cn2)[C@@H](C)NC(=O)[C@@H]2CCCN(N2)C(=O)[C@H](C)NC1=O | – | – | ring closure, isolated yield ([1]; from C=Cc1cc2cc([C@@H](C)NC(=O)[C@@H]3CCCN(C(=O)[C@H](C)NC(=O)[C@@H](NC(=O)/C=C/C)C(C)C)N3)ccc2cn1, 20-membered ring, Hoveyda-Grubbs II (2 x 10 mol%), toluene, 3.86 mM): 1.2%
CC(C)[C@@H]1NC(=O)CC=Cc2cc3cc(ccc3cn2)[C@@H](C)NC(=O)[C@@H]2CCCN(N2)C(=O)[C@H](C)NC1=O | – | – | ring closure, isolated yield ([1]; from C=CCC(=O)N[C@H](C(=O)N[C@@H](C)C(=O)N1CCC[C@@H](C(=O)N[C@H](C)c2ccc3cnc(C=C)cc3c2)N1)C(C)C, 21-membered ring, Hoveyda-Grubbs II (2 x 10 mol%), toluene, 3.86 mM): 1%
CC(C)[C@@H]1NC(=O)[C@H](CC2CC2)C=Cc2ccc3ccc(nc3c2)[C@@H](C)OC(=O)[C@@H]2CCCN(N2)C(=O)[C@H](C)NC1=O | – | – | ring closure, yield after HPLC [2]: 1.3%
CC(C)[C@@H]1NC(=O)[C@]2(/C=C/c3ccc4ccc(nc4c3)[C@@H](C)OC(=O)[C@@H]3CCCN(N3)C(=O)[C@H](C)NC1=O)CC[C@@H](O)CC2 [Compound 160] | < 0.1 µM | 98% | –
CC(C)[C@@H]1NC(=O)[C@]2(CCc3ccc4ccc(nc4c3)[C@@H](C)OC(=O)[C@@H]3CCCN(N3)C(=O)[C@H](C)NC1=O)CC[C@H](O)CC2 [Compound 161] | < 0.1 µM | – | Replicon 1a % inhibition at 1 μM [4]: 95%
Cc1cc2ccc(/C=C/C(C)(C)C(=O)N[C@H](C(=O)N[C@@H](C)C(=O)N3CCC[C@@H](C(=O)O)N3)C(C)C)cc2nc1[C@@H](C)O [Compound 162] | 1 to 10 µM | 0% | –
Cc1cc2ccc3cc2nc1[C@@H](C)OC(=O)[C@@H]1CCCN(N1)C(=O)[C@H](C)NC(=O)[C@H](C(C)C)NC(=O)C(C)(C)/C=C/3 [Compound 163] | < 0.1 µM | 100% | –
CC(C)C(=O)O[C@@H](C)[C@H]1/C=C/c2ccc3ccc(nc3c2)[C@@H](C)OC(=O)[C@@H]2CCCN(N2)C(=O)[C@H](C)NC(=O)[C@H](C(C)C)NC1=O [Compound 165] | < 0.1 µM | 100% | –
CC(C)[C@H](NC(=O)[C@H](/C=C/c1ccc2ccc([C@@H](C)O)nc2c1)[C@H](C)O)C(=O)N[C@@H](C)C(=O)N1CCC[C@@H](C(=O)O)N1 [Compound 166] | 1 to 10 µM | 0% | –
CC(C)[C@H](N)C(=O)O[C@@H](C)[C@H]1/C=C/c2ccc3ccc(nc3c2)[C@@H](C)OC(=O)[C@@H]2CCCN(N2)C(=O)[C@H](C)NC(=O)[C@H](C(C)C)NC1=O [Compound 167] | < 0.1 µM | 97% | –
CC(C)OC(=O)OCO[C@@H](C)[C@H]1/C=C/c2ccc3ccc(nc3c2)[C@@H](C)OC(=O)[C@@H]2CCCN(N2)C(=O)[C@H](C)NC(=O)[C@H](C(C)C)NC1=O [Compound 168] | < 0.1 µM | 100% | –
CC(C)[C@@H]1NC(=O)C(C)(C)/C=C/c2ccc3ccc(nc3c2F)[C@@H](C)OC(=O)[C@@H]2CCCN(N2)C(=O)[C@H](C)NC1=O [Compound 170] | < 0.1 µM | 100% | –
CC(=O)O[C@@H](C)[C@H]1/C=C/c2ccc3ccc(nc3c2)[C@@H](C)OC(=O)[C@@H]2CCCN(N2)C(=O)[C@H](C)NC(=O)[C@H](C(C)C)NC1=O [Compound 171] | < 0.1 µM | 99% | –
CCCC(=O)O[C@@H](C)[C@H]1/C=C/c2ccc3ccc(nc3c2)[C@@H](C)OC(=O)[C@@H]2CCCN(N2)C(=O)[C@H](C)NC(=O)[C@H](C(C)C)NC1=O [Compound 172] | < 0.1 µM | 100% | –
CC(C)[C@@H]1NC(=O)[C@]2(/C=C/c3ccc4ccc(nc4c3)[C@@H](C)OC(=O)[C@@H]3CCCN(N3)C(=O)[C@H](C)NC1=O)CC[C@@](C)(O)CC2 [Compound 173] | < 0.1 µM | 99% | –
CC(C)[C@@H]1NC(=O)[C@]2(/C=C/c3ccc4ccc(nc4c3)[C@@H](C)OC(=O)[C@@H]3CCCN(N3)C(=O)[C@H](C)NC1=O)CC[C@](C)(O)CC2 [Compound 174] | < 0.1 µM | 99% | –
Cc1cc2ccc3cc2nc1[C@@H](C)NC(=O)[C@@H]1CCCN(N1)C(=O)[C@H](C)NC(=O)[C@H](C(C)C)NC(=O)C(C)(C)/C=C/3 [Compound 175] | < 0.1 µM | 85% | –
(E)-pent-3-enoyl-hPhe-Ala-Piz-O-(R)-1-(3-vinyl-isoquinolin-6-yl)ethyl ester? | – | – | ring closure, isolated yield ([1]; the molecule shown is the open-chain precursor, 21-membered ring, Hoveyda-Grubbs II (portions), chlorobenzene, 4.8 mM, 110.0 °C): 12%
